Series [1] is described as follows: Rodent pharmacokinetics (rat PK). Type of series: in vivo. Particulars: po, dosed intravenously or orally by gavage, plasma, read-out: F % (bioavailability). As to the method: All studies related to handling, care, and treatment of rats in the study were performed according to the guidelines approved by the Institutional Animal Care and Use Committee (IACUC). All rats had access to food and water ad libitum. Rats were dosed intravenously or orally by gavage. Whole blood was collected from the jugular vein immediately prior to dosing and at 5 (intravenously administered drugs only), 15, and 30 min and 1, 2, 4, 8, and 24 h after drug administration. After sampling, whole blood was centrifuged at 4,000×g for 5 min at 4° C. to obtain plasma.
The letter codes for bioavailability (F %) include: A (≥5%) and B (≤5%).

For the next series, the target named is T1, IRAK4 (Homo sapiens, UniProt Q9NWZ3).
T1 construct: endogenous in cells; host or cells: OCI-LY10
T1 sequence (Q9NWZ3 1-460): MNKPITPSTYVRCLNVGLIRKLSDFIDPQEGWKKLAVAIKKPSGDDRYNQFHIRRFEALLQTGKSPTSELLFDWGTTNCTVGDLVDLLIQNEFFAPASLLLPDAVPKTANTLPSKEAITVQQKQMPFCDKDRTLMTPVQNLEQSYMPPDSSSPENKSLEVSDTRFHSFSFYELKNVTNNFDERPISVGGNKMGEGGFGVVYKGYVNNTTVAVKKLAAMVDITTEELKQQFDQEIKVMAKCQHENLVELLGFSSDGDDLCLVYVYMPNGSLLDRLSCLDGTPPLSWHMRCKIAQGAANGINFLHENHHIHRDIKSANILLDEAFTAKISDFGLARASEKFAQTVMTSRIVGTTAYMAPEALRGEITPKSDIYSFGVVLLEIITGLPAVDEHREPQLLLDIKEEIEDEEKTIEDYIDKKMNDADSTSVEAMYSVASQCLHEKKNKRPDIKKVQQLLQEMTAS
Kind of series: IRAK4 MSD degradation in OCI-LY10. Type of series: cell-based. To be noted: OCI-LY10 cells, 24 hrs, Meso Scale Discovery. The procedure, abridged:
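OCI-LY10 cells treated 4 to 24 hours at 37° C. with 8-dose 1:3 series, top 1 to 10 μM. IRAK4 in lysates quantified by MSD sandwich immunoassay (mouse capture, rabbit detection, SULFO-TAG anti-rabbit). DC50 from three-parameter logistic fit.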

SMILES strings stand for the structures.

The bioavailability is the share of a dose that reaches the circulation, judged against a reference dose that is usually intravenous. Usually DC50 stands for the concentration at which degradation of the target reaches its halfway point. A low value points to degradation at low concentration. `COc1cc2nn([C@H]3CC[C@H](CN4CC[C@@H](c5cccc6c5n(C)c(=O)n6C5CCC(=O)NC5=O)C(F)(F)C4)CC3)cc2cc1NC(=O)c1cncc(C#N)c1` (single isomer, unassigned) [I-240]: the bioavailability in series [1] was at most 5%. At IRAK4, this molecule gave a DC50 of under 10 nM.
For `COc1cc2nn([C@H]3CC[C@H](CN4CC[C@@H](c5cccc6c(C7CCC(=O)NC7=O)nn(C)c56)[C@H](F)C4)CC3)cc2cc1NC(=O)c1cncc(C#N)c1` (single isomer, unassigned) [I-263] the same measures were at most 5% and under 10 nM.
For `COc1cc2nn([C@H]3CC[C@H](CN4CC[C@H](c5cccc6c(C7CCC(=O)NC7=O)nn(C)c56)[C@@H](F)C4)CC3)cc2cc1NC(=O)c1cncc(C#N)c1` (single isomer, unassigned) [I-264], the bioavailability in series [1] was at most 5%. The molecule further showed a DC50 on IRAK4 of under 10 nM.
As to `COc1cc2nn([C@H]3CC[C@H](CN4CC[C@H](c5cccc6c5c(C)nn6C5CCC(=O)NC5=O)[C@@H](F)C4)CC3)cc2cc1NC(=O)c1cncc(C#N)c1` (single isomer, unassigned) [I-266], the bioavailability in series [1] is at most 5%. Also, at IRAK4, the DC50 was under 10 nM.
Regarding `COc1cc2nc([C@H]3CC[C@H](CN4CC[C@@H](c5cccc6c5n(C)c(=O)n6C5CCC(=O)NC5=O)C(F)(F)C4)CC3)sc2cc1NC(=O)c1cncc(C#N)c1` (single isomer, unassigned) [I-273], the bioavailability in series [1] is at most 5%. Further, the DC50 at IRAK4 is over 200 nM.
The corresponding values for `CN(C[C@H]1CC[C@H](n2cc(NC(=O)c3cnn4cccnc34)c(C(F)F)n2)CC1)[C@@H]1CCN(c2cccc3c2n(C)c(=O)n3C2CCC(=O)NC2=O)C[C@H]1F` (single isomer, unassigned) [I-279] are at least 5% and under 10 nM.
For `CN(C[C@H]1CC[C@H](n2cc(NC(=O)c3cnn4cccnc34)c(C(F)F)n2)CC1)[C@H]1CCN(c2cccc3c2n(C)c(=O)n3C2CCC(=O)NC2=O)C[C@@H]1F` (single isomer, unassigned) [I-280] the same measures were at least 5% and under 10 nM.
For `CN(C[C@H]1CC[C@H](n2cc(NC(=O)c3cnn4cccnc34)c(C(F)F)n2)CC1)[C@@H]1CCN(c2cccc3c2n(C)c(=O)n3C2CCC(=O)NC2=O)C[C@@H]1F` (single isomer, unassigned) [I-281] the same measures were at least 5% and under 10 nM.
In the case of `CN(C[C@H]1CC[C@H](c2cn3cc(NC(=O)c4cncc(C(F)(F)F)n4)ccc3n2)CC1)[C@@H]1CCN(c2cccc3c2n(C)c(=O)n3C2CCC(=O)NC2=O)C[C@H]1F` (single isomer, unassigned) [I-293], the bioavailability in series [1] was at most 5%. The DC50 on IRAK4 fell in the range of 10 to 100 nM.
For `CN(C[C@H]1CC[C@H](c2cn3cc(NC(=O)c4cncc(C(F)(F)F)n4)ccc3n2)CC1)[C@H]1CCN(c2cccc3c2n(C)c(=O)n3C2CCC(=O)NC2=O)C[C@@H]1F` (single isomer, unassigned) [I-294] the same measures were at most 5% and under 10 nM.
Turning to `CN(C[C@H]1CC[C@H](c2nc3cc(C(C)(C)O)c(NC(=O)c4cncc(C(F)(F)F)n4)cc3o2)CC1)[C@@H]1CCN(c2cccc3c2n(C)c(=O)n3C2CCC(=O)NC2=O)C[C@H]1F` (single isomer, unassigned) [I-297], in series [1], the bioavailability was at least 5%. The DC50 at IRAK4 lay in the range of 10 to 100 nM.
The corresponding values for `COc1cn2nc([C@H]3CC[C@H](CN(C)[C@@H]4CCN(c5cccc6c5n(C)c(=O)n6C5CCC(=O)NC5=O)C[C@@H]4F)CC3)cc2cc1NC(=O)c1cncc(C(F)(F)F)n1` (single isomer, unassigned) [I-302] are at most 5% and under 10 nM.
The corresponding values for `Cn1c(=O)n(C2CCC(=O)NC2=O)c2cccc(C#CCN3CCN(C[C@H]4CC[C@H](n5cc(NC(=O)c6cnn7ccc(N8C[C@H]9C[C@@H]8CO9)nc67)c(C(F)F)n5)CC4)C[C@H]3C(F)(F)F)c21` (single isomer, unassigned) [I-304] are at least 5% and 10 to 100 nM.
As for `CN(C[C@H]1CC[C@H](c2nc3cc(C(C)(C)O)c(NC(=O)c4cncc(C(F)(F)F)n4)cc3s2)CC1)[C@@H]1CCN(c2cccc3c2n(C)c(=O)n3C2CCC(=O)NC2=O)C[C@@H]1F` (single isomer, unassigned) [I-309], the bioavailability in series [1] was at least 5%. At IRAK4, this molecule registered a DC50 of under 10 nM.
As for `Cn1c(=O)n(C2CCC(=O)NC2=O)c2cccc(N3CCN(C[C@H]4CC[C@H](n5cc6cc(NC(=O)c7cncc(C(F)(F)F)n7)ccc6n5)CC4)C[C@@H]3C(F)(F)F)c21` (single isomer, unassigned) [I-313], the bioavailability in series [1] is at least 5%. For the same molecule, the DC50 at IRAK4 was under 10 nM.
The corresponding values for `COc1cc2nc([C@H]3CC[C@H](CN(C)[C@@H]4CCN(c5cccc6c5n(C)c(=O)n6C5CCC(=O)NC5=O)C[C@@H]4F)CC3)cn2cc1NC(=O)c1cncc(C(F)(F)F)n1` (single isomer, unassigned) [I-319] are at most 5% and under 10 nM.
The corresponding values for `Cn1c(=O)n(C2CCC(=O)NC2=O)c2cccc([C@@H]3CCN(C[C@H]4CC[C@H](n5cc(NC(=O)c6cnn7ccc(N8C[C@H]9C[C@@H]8CO9)nc67)c(C(F)F)n5)CC4)C[C@H]3F)c21` (single isomer, unassigned) [I-329] are at most 5% and under 10 nM.
The corresponding values for `Cn1c(=O)n(C2CCC(=O)NC2=O)c2cccc([C@H]3CCN(C[C@H]4CC[C@H](n5cc(NC(=O)c6cnn7ccc(N8C[C@H]9C[C@@H]8CO9)nc67)c(C(F)F)n5)CC4)C[C@@H]3F)c21` (single isomer, unassigned) [I-330] are at most 5% and under 10 nM.
On to `Cn1c(=O)n(C2CCC(=O)NC2=O)c2cccc([C@@H]3CCN(C[C@H]4CC[C@H](n5cc(NC(=O)c6cnn7ccc(N8C[C@H]9C[C@@H]8CO9)nc67)c(C(F)F)n5)CC4)CC3(F)F)c21` (single isomer, unassigned) [I-331], for which the bioavailability in series [1] was at most 5%. At IRAK4, the DC50 is under 10 nM.
The corresponding values for `Cn1c(=O)n(C2CCC(=O)NC2=O)c2cccc([C@H]3CCN(C[C@H]4CC[C@H](n5cc(NC(=O)c6cnn7ccc(N8C[C@H]9C[C@@H]8CO9)nc67)c(C(F)F)n5)CC4)CC3(F)F)c21` (single isomer, unassigned) [I-332] are at most 5% and under 10 nM.
As for `Cc1nn(C2CCC(=O)NC2=O)c2cccc([C@@H]3CCN(C[C@H]4CC[C@H](n5cc6cc(NC(=O)c7cncc(C(F)(F)F)n7)ncc6n5)CC4)C[C@H]3F)c12` (single isomer, unassigned) [I-340], in series [1], the bioavailability was at least 5%. The half-maximal degradation concentration (DC50) on IRAK4 was in the range of 10 to 100 nM.
For `Cn1c(=O)n(C2CCC(=O)NC2=O)c2ccc(F)c([C@@H]3CCN(C[C@H]4CC[C@H](n5cc6cc(NC(=O)c7cncc(C(F)(F)F)n7)ccc6n5)CC4)C[C@H]3F)c21` (single isomer, unassigned) [I-348] the same measures were at least 5% and under 10 nM.
For `Cn1c(=O)n(C2CCC(=O)NC2=O)c2ccc(F)c([C@H]3CCN(C[C@H]4CC[C@H](n5cc6cc(NC(=O)c7cncc(C(F)(F)F)n7)ccc6n5)CC4)C[C@@H]3F)c21` (single isomer, unassigned) [I-353] the same measures were at least 5% and 10 to 100 nM.
Turning to `O=C1CCC(n2c(=O)oc3c([C@@H]4CCN(C[C@H]5CC[C@H](n6cc7cc(NC(=O)c8cncc(C(F)(F)F)n8)ccc7n6)CC5)C[C@H]4F)cccc32)C(=O)N1` (single isomer, unassigned) [I-357], the bioavailability in series [1] is at most 5%. The half-maximal degradation concentration (DC50) at IRAK4 was under 10 nM.
Consider `O=C1CCC(n2c(=O)oc3c([C@H]4CCN(C[C@H]5CC[C@H](n6cc7cc(NC(=O)c8cncc(C(F)(F)F)n8)ccc7n6)CC5)C[C@@H]4F)cccc32)C(=O)N1` (single isomer, unassigned) [I-360], for which the bioavailability in series [1] was at most 5%. The DC50 on IRAK4 is over 200 nM.
For `Cn1nc(C2CCC(=O)NC2=O)c2cccc([C@@H]3CCN(C[C@H]4CC[C@H](n5cc6cc(NC(=O)c7cncc(C#N)c7)c(C(C)(C)O)cc6n5)CC4)C[C@H]3F)c21` (single isomer, unassigned) [I-362] the same measures were at least 5% and under 10 nM.
The corresponding values for `Cn1nc(C2CCC(=O)NC2=O)c2cccc([C@H]3CCN(C[C@H]4CC[C@H](n5cc6cc(NC(=O)c7cncc(C#N)c7)c(C(C)(C)O)cc6n5)CC4)C[C@@H]3F)c21` (single isomer, unassigned) [I-363] are at least 5% and under 10 nM.
The corresponding values for `Cn1nc(C2CCC(=O)NC2=O)c2cccc([C@@H]3CCN(C[C@H]4CC[C@H](n5cc6cc(NC(=O)c7cncc(C(F)(F)F)n7)ncc6n5)CC4)C[C@H]3F)c21` (single isomer, unassigned) [I-370] are at least 5% and under 10 nM.
